Test results taken from US20150105252A1, “SUBSTITUTED PYRAZOLES AS HERBICIDES” (E I DU PONT DE NEMOURS AND COMPANY, priority 2013, published 2015).

Columns and labels:
[1] = test system: morningglory; assay: Test A preemergence; assay type: in vivo, Ipomoea spp.; settings: Preemergence, 1000 g ai/ha; 0 to 100 scale, 0 no effect, 100 complete control
In short: (§1)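 Visual injury ratings, 0 = no effect to 100 = complete control, taken about 10 days after treatment against untreated controls. Test chemicals, in a non-phytotoxic surfactant-containing solvent, were sprayed onto soil preemergence or onto one- to two-leaf plants (2–10 cm) postemergence, in loam–sand soil under greenhouse conditions.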

[2] = test system: corn; assay: Test A postemergence; assay type: in vivo, Zea mays
In short: as §1

[3] = test system: sedge, umbrella; assay: Test B flood; assay type: in vivo, Cyperus difformis; settings: 250 g ai/ha, visual rating on 0 to 100 scale (0 no effect, 100 complete control), 13 to 15 days
In short: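 Plants were grown to the 2-leaf stage, then pots were flooded to 3 cm above the soil and compounds were applied directly into the paddy water. Water depth was held for the whole test; after 13 to 15 days in a greenhouse, injury was visually rated against untreated controls (0 = no effect, 100 = complete control).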

[4] = test system: ryegrass, Italian; assay: Test C preemergence; assay type: in vivo, Lolium multiflorum; settings: for Plant response rating (scale of 0 to 100), Ryegrass, Italian: Preemergence, 250 g ai/ha; for Ryegrass, Italian plant response rating / Plant response rating, Ryegrass, Italian: preemergence; for Plant response rating, Ryegrass, Italian: scale 0 to 100, 0 = no effect, 100 = complete control
In short: (§2)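 Postemergence values come from plants sprayed at the 1- to 4-leaf stage (2–18 cm) in peat moss–vermiculite medium; preemergence values from seeds treated in a loam–sand blend. Both evaluated visually against controls after 13–15 greenhouse days, scale 0–100.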

[5] = test system: galium; assay: Test C preemergence; assay type: in vivo, Galium aparine; settings: for Plant response rating (scale of 0 to 100), Galium: Preemergence, 250 g ai/ha; for Galium plant response rating / Plant response rating, Galium: preemergence; for Plant response rating, Galium: scale 0 to 100, 0 = no effect, 100 = complete control
In short: as §2

[6] = test system: crabgrass, large; assay: Test C preemergence; assay type: in vivo, Digitaria sanguinalis; settings: for Plant response rating (scale of 0 to 100), Crabgrass, Large: Preemergence, 250 g ai/ha; for Crabgrass, Large plant response rating / Plant response rating, Crabgrass, Large: preemergence; for Plant response rating, Crabgrass, Large: scale 0 to 100, 0 = no effect, 100 = complete control
In short: as §2

[7] = test system: wheat; assay: Test C postemergence; assay type: in vivo, Triticum aestivum; settings: for Wheat plant response rating / Plant response rating, Wheat: postemergence; for Wheat plant response rating: 62 g ai/ha, scale 0 to 100
In short: as §2

[8] = test system: foxtail, giant; assay: Test C postemergence; assay type: in vivo, Setaria faberii; settings: for Foxtail, Giant plant response rating: scale 0 to 100
In short: as §2

[9] = test system: morningglory; assay: Test C postemergence; assay type: in vivo, Ipomoea coccinea; settings: for Morningglory plant response rating: scale 0 to 100
In short: as §2

[10] = test system: pigweed; assay: Test C postemergence; assay type: in vivo, Amaranthus retroflexus; settings: for Pigweed plant response rating: scale 0 to 100
In short: as §2

[11] = test system: ragweed; assay: Test C postemergence; assay type: in vivo, Ambrosia elation; settings: for Ragweed plant response rating / Plant response rating, Ragweed: postemergence; for Ragweed plant response rating: 62 g ai/ha, scale 0 to 100
In short: as §2

[12] = test system: oat, wild; assay: Test C postemergence; assay type: in vivo, Avena fatua; settings: for Oat, Wild plant response rating: scale 0 to 100
In short: as §2

[13] = test system: chickweed; assay: Test C postemergence; assay type: in vivo, Stellaria media; settings: for Chickweed plant response rating: scale 0 to 100
In short: as §2

[14] = 31 g ai/ha, scale 0 to 100 (0 no effect, 100 complete control), 13 to 15 days
[15] = 125 g ai/ha, scale 0 to 100, 0 is no effect, 100 is complete control
[16] = 250 g ai/ha, scale 0 to 100 (0 no effect, 100 complete control)
[17] = 125 g ai/ha, scale 0 to 100, 0 no effect, 100 complete control
[18] = postemergence, 250 g ai/ha, scale 0 to 100 (0 no effect, 100 complete control)
[19] = postemergence, 125 g ai/ha, scale 0 to 100, 0 no effect, 100 complete control
[20] = 31 g ai/ha, visual rating, scale 0 to 100 (0 no effect, 100 complete control), 13 to 15 days
[21] = 62 g ai/ha, scale 0 to 100 (0 no effect, 100 complete control), 13 to 15 days
[22] = Postemergence, 31 g ai/ha, visually evaluated after 13 to 15 days

Compound: Cc1cc(C(=O)NCC(F)(F)F)nn1Cc1ccnc(C(F)(F)F)c1 [Compound 74]
- Morningglory plant response rating [1]: 100
- Corn plant response rating ([2]; Postemergence, 1000 g ai/ha, visual rating after approx. 10 days, 0 to 100 scale (0 no effect, 100 complete control)): 100
- Plant response rating, Sedge, Umbrella [3]: 65
- Plant response rating (scale of 0 to 100), Ryegrass, Italian [4]: 80
- Ryegrass, Italian plant response rating [4, 14]: 5
- Plant response rating, Ryegrass, Italian ([4]; 62 g ai/ha, 13 to 15 days): 5
- Ryegrass, Italian plant response rating [4, 15]: 50
- Plant response rating (scale of 0 to 100), Galium [5]: 100
- Galium plant response rating [5, 14]: 85
- Plant response rating, Galium ([5]; 62 g ai/ha, 13 to 15 days): 100
- Galium plant response rating [5, 15]: 100
- Plant response rating (scale of 0 to 100), Crabgrass, Large [6]: 100
- Crabgrass, Large plant response rating [6, 14]: 98
- Plant response rating, Crabgrass, Large ([6]; 62 g ai/ha, 13 to 15 days): 100
- Crabgrass, Large plant response rating [6, 15]: 100
- Wheat plant response rating [7]: 0
- Plant response rating, Wheat [7, 16]: 5
- Plant response rating, Wheat [7, 17]: 0
- Foxtail, Giant plant response rating ([8]; Postemergence, 31 g ai/ha): 5
- Foxtail, Giant plant response rating ([8]; postemergence, 62 g ai/ha): 10
- Plant response rating, Foxtail, Giant [8, 18]: 25
- Plant response rating, Foxtail, Giant [8, 19]: 10
- Morningglory plant response rating ([9]; Postemergence, 31 g ai/ha): 70
- Morningglory plant response rating ([9]; postemergence, 62 g ai/ha): 75
- Plant response rating, Morningglory [9, 18]: 80
- Plant response rating, Morningglory [9, 19]: 75
- Pigweed plant response rating ([10]; Postemergence, 31 g ai/ha): 60
- Pigweed plant response rating ([10]; postemergence, 62 g ai/ha): 65
- Plant response rating, Pigweed [10, 18]: 80
- Plant response rating, Pigweed [10, 19]: 80
- Ragweed plant response rating [11]: 45
- Plant response rating, Ragweed [11, 16]: 70
- Oat, Wild plant response rating ([12]; Postemergence, 31 g ai/ha): 0
- Oat, Wild plant response rating ([12]; postemergence, 62 g ai/ha): 0
- Plant response rating, Oat, Wild [12, 18]: 5
- Plant response rating, Oat, Wild [12, 19]: 5
- Chickweed plant response rating ([13]; Postemergence, 31 g ai/ha): 20
- Chickweed plant response rating ([13]; postemergence, 62 g ai/ha): 45
- Plant response rating, Chickweed [13, 18]: 55
- Plant response rating, Chickweed [13, 19]: 45

Compound: CCCc1cc(C(=O)NCC(F)(F)F)nn1Cc1ccnc(OC(F)F)c1 [Compound 127]
- Corn plant response rating ([2]; Postemergence, 500 g ai/ha, 0 to 100 scale (0 no effect, 100 complete control)): 90
- Corn plant response rating ([2]; postemergence, 125 g ai/ha, about 10 days, visual rating on 0 to 100 scale (0 no effect, 100 complete control)): 90
- Plant response rating, Sedge, Umbrella [3]: 85
- Plant response rating (scale of 0 to 100), Ryegrass, Italian [4]: 80
- Ryegrass, Italian plant response rating [4, 20]: 25
- Ryegrass, Italian plant response rating [4, 21]: 60
- Plant response rating, Ryegrass, Italian ([4]; 125 g ai/ha, 13 to 15 days): 80
- Plant response rating (scale of 0 to 100), Galium [5]: 100
- Galium plant response rating [5, 20]: 80
- Galium plant response rating [5, 21]: 100
- Plant response rating, Galium ([5]; 125 g ai/ha, 13 to 15 days): 100
- Plant response rating (scale of 0 to 100), Crabgrass, Large [6]: 100
- Crabgrass, Large plant response rating [6, 20]: 80
- Crabgrass, Large plant response rating [6, 21]: 100
- Plant response rating, Crabgrass, Large ([6]; 125 g ai/ha, 13 to 15 days): 100
- Plant response rating (scale of 0 to 100 where 0 is no effect and 100 is complete control), Wheat [7, 22]: 5
- Wheat plant response rating [7]: 5
- Plant response rating, Wheat [7, 16]: 10
- Plant response rating, Wheat [7, 17]: 5
- Plant response rating (scale of 0 to 100 where 0 is no effect and 100 is complete control), Foxtail, Giant [8, 22]: 10
- Foxtail, Giant plant response rating ([8]; postemergence, 62 g ai/ha): 15
- Plant response rating, Foxtail, Giant [8, 18]: 35
- Plant response rating, Foxtail, Giant [8, 19]: 15
- Plant response rating (scale of 0 to 100 where 0 is no effect and 100 is complete control), Morningglory [9, 22]: 65
- Morningglory plant response rating ([9]; postemergence, 62 g ai/ha): 70
- Plant response rating, Morningglory [9, 18]: 85
- Plant response rating, Morningglory [9, 19]: 60
- Plant response rating (scale of 0 to 100 where 0 is no effect and 100 is complete control), Pigweed [10, 22]: 35
- Pigweed plant response rating ([10]; postemergence, 62 g ai/ha): 70
- Plant response rating, Pigweed [10, 18]: 85
- Plant response rating, Pigweed [10, 19]: 75
- Plant response rating (scale of 0 to 100 where 0 is no effect and 100 is complete control), Ragweed [11, 22]: 30
- Ragweed plant response rating [11]: 20
- Plant response rating, Ragweed [11, 16]: 60
- Plant response rating, Ragweed [11, 17]: 50
- Plant response rating (scale of 0 to 100 where 0 is no effect and 100 is complete control), Oat, Wild [12, 22]: 5
- Oat, Wild plant response rating ([12]; postemergence, 62 g ai/ha): 5
- Plant response rating, Oat, Wild [12, 18]: 35
- Plant response rating, Oat, Wild [12, 19]: 5
- Plant response rating (scale of 0 to 100 where 0 is no effect and 100 is complete control), Chickweed [13, 22]: 75
- Chickweed plant response rating ([13]; postemergence, 62 g ai/ha): 80
- Plant response rating, Chickweed [13, 18]: 80
- Plant response rating, Chickweed [13, 19]: 80
